# From article PMC6368403, “Identification of a bilirubin receptor that may mediate a component of cholestatic itch” (eLife, 2019)
# “And” between values parts separate entries of the source, which are not always exact repeats. Equal entries are not always repeated.
# What was measured:
# MRGPRC11 [1] = biological target: T1, MRGPRC11 (Mus musculus, UniProt Q8CIP3); assay: Microscale thermophoresis binding to MRGPRC11; conditions: for microscale thermophoresis response (binding isotherm), mean: mean of n=3, Fig 2-O
# T1 construct: expressed in transfected cells
# T1 sequence (Q8CIP3 1-322): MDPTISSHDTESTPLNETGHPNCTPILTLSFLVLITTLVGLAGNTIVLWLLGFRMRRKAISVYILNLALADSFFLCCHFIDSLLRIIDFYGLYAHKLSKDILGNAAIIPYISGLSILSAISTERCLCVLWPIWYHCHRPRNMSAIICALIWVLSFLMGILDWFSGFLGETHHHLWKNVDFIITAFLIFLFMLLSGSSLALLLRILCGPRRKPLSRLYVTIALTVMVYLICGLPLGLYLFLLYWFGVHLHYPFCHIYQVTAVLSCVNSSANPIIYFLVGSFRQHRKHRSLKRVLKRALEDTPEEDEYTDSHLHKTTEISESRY
# Protocol: Binding isotherms for MRGPRA1, MRGPRX4, and MRGRPC11 towards various ligands were determined by microscale thermophoresis with the NanoTemper monolith NT.115 instrument ([Duhr and Braun, 2006]). Ligands were pre-incubated with 10 µM of the GFP-tagged receptor of interest for 5 min at room temperature in binding buffer (20 mM Tris and 150 mM NaCl at pH 8.8). Receptors were crudely purified as a membrane fraction from cells stably expressing the receptor ([Vasavda et al., 2017]). Haem metabolites were freshly dissolved in 0.1 M NaOH in dim light and then diluted into assay buffer. Lyophilized BAM8-22 was dissolved in binding buffer. The pH of each ligand was evaluated prior to incubation with a receptor. Samples were loaded into NT.115 Hydrophobic-Treated Capillaries from NanoTemper. Microscale thermophoretic experiments were executed using 20% LED power and 15% MST power. KDs were calculated using the law of mass action with data from three independent experiments. Binding between bilirubin and receptors was evaluated purely thermophoretically, whereas binding between BAM8-22 and MRGPRC11 was evaluated by T-Jump. Samples with dramatic deviations in initial fluorescence were excluded.
# [2] = test system: murine peritoneal mast cells; assay: Mouse peritoneal mast cell histamine release assay; format: cell-based; conditions: 100 µM bilirubin
# Protocol: Adult male mice 8–12 weeks of age were sacrificed through CO2 inhalation. A total of 25 mL of mast cell dissociation media (MCDM; HBSS with 3% fetal bovine serum and 10 mM HEPES, pH 7.2) was chilled on ice before being used to make two sequential peritoneal lavages. Lavages were combined and spun at 200 g. […] Mast cells were recovered in the pellet. Mast cells were re-suspended in DMEM with 10% fetal bovine serum (FBS) and 25 ng/mL recombinant mouse stem cell factor (Sigma). Mast cells were purified as described and allowed to recover for 2 hr at 37°C. Cells were then seeded in 96-well plates coated with […] fibronectin at 300 cells/well. Plates were incubated at 37°C for 45 min before assay. For the assay, all compounds tested were diluted in CIB. Five minutes after compound addition, supernatant was aspirated and frozen at −80°C until histamine levels were determined with an HTRF histamine assay kit (Cisbio Assays) according to the manufacturer’s instructions.
# MRGPRC11 [3] = biological target: T1, MRGPRC11; assay: [35S]GTPγS binding to MRGPRC11 membrane complexes; format: biochemical; conditions: 50 μM bilirubin
# Protocol: MRGPR activation was determined by measuring binding of a radiolabelled and non-hydrolyzable form of GTP, [^35S]guanosine-5’-(γ-thio)triphosphate ([^35S]GTPγS) as previously described ([Vasavda et al., 2017]). Briefly, 10 µg of crude membrane fractions were diluted into 175 µL assay buffer (50 mM HEPES, 5 mM MgCl2, 100 mM NaCl, 1 mM EDTA, 0.1% […]) supplemented with 10 µM GDP and incubated at room temperature for 5 min. Membranes were then incubated an additional 1 min in a final volume of 199 μL assay buffer supplemented with 50 μM bilirubin. Samples were then brought to 200 μL with the addition of 10 nM [^35S]GTPγS. Samples were incubated for 2 hr at 4°C with gentle agitation. The experiment was terminated by rapid filtration onto GF/B filters and washed three times with wash buffer (50 mM Tris-HCl, 5 mM MgCl2, and 50 mM NaCl at pH 7.4). Filters were then immersed in scintillation cocktail and counted. Nonspecific binding was determined by competition with 10 μM unlabelled GTPγS. GTPγS binding assays were performed as two independent experiments, in triplicate.
structure (smiles),measurement,setting,value
"C=CC1=C(C)/C(=C/c2[nH]c(Cc3[nH]c(/C=C4\NC(=O)C(C)=C4C=C)c(C)c3CCC(=O)O)c(CCC(=O)O)c2C)NC1=O [bilirubin, bilirubin IXα]","microscale thermophoresis response (binding isotherm), mean",MRGPRC11 [1]; [Ligand] 3.05e-8 M,2.385e-5
same,"microscale thermophoresis response (binding isotherm), mean",MRGPRC11 [1]; [Ligand] 6.1e-8 M,4.712e-5
same,"microscale thermophoresis response (binding isotherm), mean",MRGPRC11 [1]; [Ligand] 1.221e-7 M,4.182e-5
same,"microscale thermophoresis response (binding isotherm), mean",MRGPRC11 [1]; [Ligand] 2.441e-7 M,4.08e-5
same,"microscale thermophoresis response (binding isotherm), mean",MRGPRC11 [1]; [Ligand] 4.883e-7 M,5.536e-5
same,"microscale thermophoresis response (binding isotherm), mean",MRGPRC11 [1]; [Ligand] 9.766e-7 M,1.928e-5
same,"microscale thermophoresis response (binding isotherm), mean",MRGPRC11 [1]; [Ligand] 1.9531e-6 M,-5.329e-6
same,"microscale thermophoresis response (binding isotherm), mean",MRGPRC11 [1]; [Ligand] 3.9063e-6 M,-1.57e-5
same,"microscale thermophoresis response (binding isotherm), mean",MRGPRC11 [1]; [Ligand] 7.8125e-6 M,-3.808e-5
same,"microscale thermophoresis response (binding isotherm), mean",MRGPRC11 [1]; [Ligand] 1.5625e-5 M,-4.952e-5
same,"microscale thermophoresis response (binding isotherm), mean",MRGPRC11 [1]; [Ligand] 3.125e-5 M,-4.222e-5
same,"microscale thermophoresis response (binding isotherm), mean",MRGPRC11 [1]; [Ligand] 6.25e-5 M,5.5228e-6
same,"microscale thermophoresis response (binding isotherm), mean",MRGPRC11 [1]; [Ligand] 0.000125 M,4.793e-5
same,"microscale thermophoresis response (binding isotherm), mean",MRGPRC11 [1]; [Ligand] 0.00025 M,9.26e-5
same,"microscale thermophoresis response (binding isotherm), mean",MRGPRC11 [1]; [Ligand] 0.0005 M,0.0002843
same,Affinity for MRGPRC11,MRGPRC11 [1]; microscale thermophoresis,little to no affinity
same,Mast cell histamine release,[2],did not elicit a calcium response or induce appreciable histamine release
same,GTP binding to MRGPRC11 membrane complexes,MRGPRC11 [3],not to MRGPRC11
same,[35S]GTPγS binding,MRGPRC11 [3]; MRGPRC11 membrane complexes (Fig 2K),75 and 84 and 78
